Data taken from patent publication US7101878B1 (Agouron Pharmaceuticals, Inc., priority 1998, dated 2006).

Assays:
[1] = molecular target: T1, rat GnRH receptor (Rattus norvegicus, UniProt P30969); experiment: Radioligand binding, 125I-GnRH-A, rat pituitary membranes; set-up: membranes were prepared from rat pituitary; from tissue; host or cells: rat pituitary; conditions: read-out: rGnRH IC50
T1 sequence (P30969 1-327): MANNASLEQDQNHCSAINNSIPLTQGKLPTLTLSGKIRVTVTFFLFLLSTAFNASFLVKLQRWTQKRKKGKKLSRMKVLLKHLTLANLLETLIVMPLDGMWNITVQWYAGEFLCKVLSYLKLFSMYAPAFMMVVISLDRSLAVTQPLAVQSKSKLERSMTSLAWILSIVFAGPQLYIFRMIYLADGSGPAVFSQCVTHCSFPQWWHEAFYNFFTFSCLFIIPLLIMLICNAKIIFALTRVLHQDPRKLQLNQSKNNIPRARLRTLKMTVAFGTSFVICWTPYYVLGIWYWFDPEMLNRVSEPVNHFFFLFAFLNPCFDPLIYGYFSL
Protocol: All compounds were diluted in 1% DMSO (final assay concentration) in binding assay buffer. […] Reactions were terminated by rapid filtration onto 96-well Packard GF/C filters soaked in 0.1% polyethyleneimine. Filters were washed three times with PBS buffer, dried and counted on a Packard Topcount by liquid scintillation counting.
Assay conditions were identical for assessing compound activities at other species. […] IC50 values for control peptides and test compounds were calculated utilizing GraphPad Prism™ software.
The reaction mixture was vortexed and incubated for 1 min at room temperature. After one min, the mixture was vortexed and allowed to incubate for an additional minute. 2 ml of 0.5 M acetic acid/1% BSA was added to the reaction tube and the mixture was added to a C18 Sep-Pak cartridge. The cartridge was washed with subsequent washes of 5 ml H2O and 5 ml 0.5M acetic acid and then eluted with 5×1 ml of 60% CH3CN/40% 0.5M acetic acid. The eluate was diluted with 3× volume of HPLC buffer A (0.1% TFA in H2O) and loaded onto a C18 column. […] The radioactive fractions (750 ed/fraction) are collected into clean polypropylene tubes containing 100 μl of 10% BSA. Fractions were assessed for biological activity by radioligand binding.

[2] = molecular target: T2, human GnRH receptor (Homo sapiens, UniProt P30968); experiment: Radioligand binding, 125I-GnRH-A displacement, membranes of HEK 293 cells with human GnRH receptor; conditions: read-out: hGnRH IC50
T2 construct: expressed in transfected cells; host or cells: HEK 293 (hGnRH-R/293, from Dr. Stuart Sealfon)
T2 sequence (P30968 1-328): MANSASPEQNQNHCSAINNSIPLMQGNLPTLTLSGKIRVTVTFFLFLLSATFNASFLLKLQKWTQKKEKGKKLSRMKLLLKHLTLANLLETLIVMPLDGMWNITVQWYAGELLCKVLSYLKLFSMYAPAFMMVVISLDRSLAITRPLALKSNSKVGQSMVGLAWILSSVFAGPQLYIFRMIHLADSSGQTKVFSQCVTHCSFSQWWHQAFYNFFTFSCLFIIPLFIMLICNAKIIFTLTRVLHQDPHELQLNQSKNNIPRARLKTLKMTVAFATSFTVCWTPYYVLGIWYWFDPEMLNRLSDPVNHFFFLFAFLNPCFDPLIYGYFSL
Method in brief: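 After filtration and PBS washes, bound radioactivity was counted by scintillation and IC50 derived. Identical conditions applied for non-human receptors.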

[3] = molecular target: T3, mouse GnRH receptor (Mus musculus, UniProt Q01776); experiment: Radioligand binding, 125I-GnRH-A, 293 cells expressing mouse GnRH receptors; conditions: read-out: mGnRH IC50
T3 construct: expressed in transfected cells; host or cells: 293 cells
T3 sequence (Q01776 1-327): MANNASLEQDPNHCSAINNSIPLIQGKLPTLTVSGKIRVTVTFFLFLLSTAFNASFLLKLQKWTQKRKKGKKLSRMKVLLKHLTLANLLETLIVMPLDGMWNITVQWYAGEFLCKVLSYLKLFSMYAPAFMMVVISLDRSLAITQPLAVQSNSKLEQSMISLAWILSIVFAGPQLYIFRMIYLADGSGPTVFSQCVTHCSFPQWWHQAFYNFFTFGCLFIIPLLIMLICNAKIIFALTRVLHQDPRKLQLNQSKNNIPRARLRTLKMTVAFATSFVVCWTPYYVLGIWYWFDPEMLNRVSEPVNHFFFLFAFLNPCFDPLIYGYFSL
Method in brief: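 Bound label captured on 0.1% polyethyleneimine-treated GF/C filters, washed three times with PBS, counted. IC50 derived; identical set-up for every species.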

[4] = Pharmacokinetic studies / bioavailability in rats; type: in vivo, rat; conditions: rat male; p.o. 20 mg/kg; vehicle per footnote (DMSO/cremophor/saline)

Compound	IC50 [1]	IC50 [2]	IC50 [3]	Fp.o. [4]
Cc1cc2c(cc1Cc1ccc(C(=O)NCC3CCNCC3)o1)C(C)(C)CCC2(C)C [Compound 76]	5300 nM	880 nM		
Cc1cc2c(cc1Cc1ccc(C(=O)NCC3CCCC(CN)C3)o1)C(C)(C)CCC2(C)C (stereo not shown) [Compound 127]	910 nM	510 nM		
Cc1cc2c(cc1Cc1ccc(C(=O)NCC3CCN(c4ccnc(Cl)n4)CC3)o1)C(C)(C)CCC2(C)C [Compound 103]	3460 nM	360 nM		
CCC(C)(C)c1ccc(OC)c(Cc2ccc(C(=O)Nc3c(OC)cc(OC)cc3OC)o2)c1 [Compound 232]	5.7 nM	19 nM	9 nM	
Cc1cc2c(cc1Cc1ccc(C(=O)NCC3CCC(CN)CC3)o1)C(C)(C)CCC2(C)C (stereo not shown) [Compound 75]	740 nM	115 nM	710 nM	
Cc1cc2c(cc1Cc1ccc(C(=O)NCC3CCCN(C(=O)OC(C)(C)C)C3)o1)C(C)(C)CCC2(C)C (stereo not shown) [Compound 100]	6000 nM	585 nM		
Cc1cc2c(cc1Cc1ccc(C(=O)NCC3CCCC(CNc4ncccn4)C3)o1)C(C)(C)CCC2(C)C (stereo not shown) [Compound 138]	1630 nM	200 nM	1570 nM	
Cc1cc2c(cc1Cc1ccc(C(=O)NCc3cccc(CN)c3)o1)C(C)(C)CCC2(C)C [Compound 139]	113 nM	110 nM	150 nM	
Cc1cc2c(cc1Cc1ccc(C(=O)NCc3ccc(-c4csnn4)cc3)o1)C(C)(C)CCC2(C)C [Compound 79]	370 nM	250 nM		
Cc1cc2c(cc1Cc1ccc(C(=O)Nc3ccc(NC(=O)OC(C)(C)C)cc3)o1)C(C)(C)CCC2(C)C [Compound 101]	> 10000 nM	> 10000 nM		
COCCCNC(=O)c1ccc(Cc2cc3c(cc2C)C(C)(C)CCC3(C)C)o1 [Compound 122]	1260 nM	730 nM		
COC(CCCNC(=O)c1ccc(Cc2cc3c(cc2C)C(C)(C)CCC3(C)C)o1)OC [Compound 125]	560 nM	135 nM	1050 nM	
Cc1cc2c(cc1Cc1ccc(C(=O)NCC3CCC(CNc4ncccn4)CC3)o1)C(C)(C)CCC2(C)C (stereo not shown) [Compound 111]	1740 nM	630 nM		
COc1cc(OC)c(C(C)=O)cc1NC(=O)c1ccc(Cc2cc3c(cc2C)C(C)(C)CCC3(C)C)o1 [Compound 170]	30 nM	50 nM	22 nM	0 (20 mg/kg)^7%
COc1ccc(OC)c(NC(=O)c2ccc(Cc3cc4c(cc3C)C(C)(C)CCC4(C)C)o2)c1 [Compound 98]	220 nM	80 nM	84 nM	
CCC(C)(C)c1ccc(OC)c(Cc2ccc(C(=O)Nc3c(OC)cccc3OC)o2)c1 [Compound 231]	51 nM	5 nM	24 nM	
COCCCNc1ccnc(NCc2cccc(CNC(=O)c3ccc(Cc4cc5c(cc4C)C(C)(C)CCC5(C)C)o3)c2)n1 [Compound 153]	11 nM	120 nM	21 nM	
Cc1cc2c(cc1Cc1ccc(C(=O)NCc3ccc(CN)cc3)o1)C(C)(C)CCC2(C)C [Compound 113]	300 nM	340 nM		
Cc1cc2c(cc1Cc1ccc(C(=O)NC[C@H]3CC[C@H](CNc4ccnc(NC[C@@H]5CCCO5)n4)CC3)o1)C(C)(C)CCC2(C)C [Compound 174]	385 nM	220 nM	570 nM	
